Patent US11578077B2, “Spiro-oxazolones” (Hoffmann-La Roche Inc., priority 2013, dated 2023)

These compounds were tested against human V1a receptor (Homo sapiens (Human), UniProt P37288) (assay: human V1a receptor binding studies (3H-Vasopressin, SPA beads)). Details: membranes of HEK293 cells transiently transfected with human V1a receptor, Ki by Cheng-Prusoff.
Description: The human V1a receptor was cloned by RT-PCR from total human liver RNA. The coding sequence was subcloned in an expression vector after sequencing to confirm the identity of the amplified sequence. […] Cell membranes were prepared from HEK293 cells transiently transfected with the expression vector and grown in 20 liter fermenters with the following protocol.
50 g of cells are re-suspended in 30 ml freshly prepared ice cold Lysis buffer ([…] HEPES. 1 mM EDTA, 10 mM MgCl2 adjusted to pH=7.4+complete cocktail of protease inhibitor (Roche Diagnostics)). Homogenized with Polytron for 1 min and sonicated on ice for 2×2 minutes at 80% intensity (Vibracell sonicator). The preparation is centrifuged 20 min at 500 g at 4° C., the pellet is discarded and the supernatant centrifuged 1 hour at 43'000 g at 4° C. (19'000 rpm). The pellet is re-suspended in 12.5 ml Lysis buffer+12.5 ml Sucrose 20% and homogenized using a Polytron for 1-2 min. The protein concentration is determined by the Bradford method and aliquots are stored at −80° C. until use. For binding studies 60 mg Yttrium silicate SPA beads (Amersham) are mixed with an aliquot of membrane in binding buffer (50 mM Tris, 120 mM NaCl, 5 mM KCl, 2 mM CaCl2, 10 mM MgCl) for 15 minutes with mixing. 50 μl of bead/membrane mixture is then added to each well of a 96 well plate, followed by […] of 4 nM 3H-Vasopressin (American Radiolabeled Chemicals). For total binding measurement 100 μl of binding buffer are added to the respective wells, for non-specific binding 100 μl of […] cold vasopressin and for compound testing 100 μl of a serial dilution of each compound in 2% DMSO. The plate is incubated 1 h at room temperature, centrifuged 1 min at 1000 g and counted on a Packard Top-Count. Non-specific binding counts are subtracted from each well and data is normalized to the maximum specific binding set at 100%. To calculate an IC 50 the curve is fitted using a non-linear regression model (XLfit) and the Ki is calculated using the Cheng-Prussoff equation.

human V1a receptor, sequence (P37288 whole entry): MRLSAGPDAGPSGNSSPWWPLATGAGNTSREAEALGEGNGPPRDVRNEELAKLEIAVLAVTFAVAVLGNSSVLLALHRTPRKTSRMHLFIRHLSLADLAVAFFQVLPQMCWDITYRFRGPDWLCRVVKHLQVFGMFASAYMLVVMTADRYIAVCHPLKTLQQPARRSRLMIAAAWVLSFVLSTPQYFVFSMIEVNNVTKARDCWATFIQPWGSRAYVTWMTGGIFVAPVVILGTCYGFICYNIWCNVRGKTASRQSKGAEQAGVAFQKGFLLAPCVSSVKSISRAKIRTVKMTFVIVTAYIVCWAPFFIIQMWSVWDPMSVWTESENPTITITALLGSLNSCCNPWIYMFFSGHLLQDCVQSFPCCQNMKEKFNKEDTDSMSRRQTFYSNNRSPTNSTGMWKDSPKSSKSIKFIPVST

| SMILES | pKi hV1a |
| --- | --- |
| O=C1N=C(N2CCC3(CC2)OCc2ccccc23)OC12Cc1cnc(C(F)(F)F)cc1C2 (centres unmarked) [Example 61, 2′-(1′H,3H-spiro[2-benzofuran-1,4′-piperidin]-1′-yl)-3-(trifluoromethyl)-5,7-dihydro-4′H-spiro[cyclopenta[c]pyridine-6,5′-[1,3]oxazol]-4′-one] | 8.5 |
| O=C1OC2(CCN(C3=NC(=O)C4(CCCc5ccccc54)O3)CC2)c2ccccc21 (centres unmarked) [Example 63, 1′-(4′-oxo-3,4-dihydro-2H,4′H-spiro[naphthalene-1,5′-[1,3]oxazol]-2′-yl)-3H-spiro[2-benzofuran-1,4′-piperidin]-3-one] | 6.7 |
| O=C1OC2(CCN(C3=NC(=O)C4(CCc5ccccc5C4)O3)CC2)c2ccccc21 (centres unmarked) [Example 65, 1′-(4′-oxo-3,4-dihydro-1H,4′H-spiro[naphthalene-2,5′-[1,3]oxazol]-2′-yl)-1′H,3H-spiro[2-benzofuran-1,4′-piperidin]-3-one] | 8.8 |
| COc1cccc2c1CC1(C2)OC(N2CCC3(CC2)OC(C)(C)c2ncccc23)=NC1=O (centres unmarked) [Example 68, 2′-(7,7-dimethyl-1′H,7H-spiro[furo[3,4-b]pyridine-5,4′-piperidin]-1′-yl)-4-methoxy-1,3-dihydro-4′H-spiro[indene-2,5′-[1,3]oxazol]-4′-one] | 8.1 |
| CC1(C)OC2(CCN(C3=NC(=O)C4(Cc5cccc(O)c5C4)O3)CC2)c2cccnc21 (centres unmarked) [Example 69, 2′-(7,7-dimethyl-1′H,7H-spiro[furo[3,4-b]pyridine-5,4′-piperidin]-1′-yl)-4-hydroxy-1,3-dihydro-4′H-spiro[indene-2,5′-[1,3]oxazol]-4′-one] | 9.3 |
| CC1(C)OC2(CCN(C3=NC(=O)C4(Cc5ccccc5C4)O3)CC2)c2ccc[n+]([O-])c21 [Example 70, 2′-(7,7-dimethyl-1-oxido-1′H,7H-spiro[furo[3,4-b)pyridine-5,4′-piperidin]-1′yl)-1,3-dihydro-4′H-spiro[indene-2,5′-[1,3]oxazol]-4′-one] | 7.3 |
| CC1(C)OC2(CCN(C3=NC(=O)C4(Cc5ccccc5C4)O3)CC2)c2cc(O)cnc21 [Example 71, 2′-(3-hydroxy-7,7-dimethyl-1′H,7H-spiro[furo[3,4-b]pyridine-5,4′-piperidin]-1′-yl)-1,3-dihydro-4′H-spiro[indene-2,5′-[1,3]oxazol]-4′-one] | 10.2 |
| CC1(C)OC2(CCN(C3=NC(=O)C4(Cc5ccccc5C4)O3)CC2)c2ccc(O)nc21 [Example 72, 2′-(2-hydroxy-7,7-dimethyl-1′H,7H-spiro[furo[3,4-b]pyridine-5,4′-piperidin]-1′-yl)-1,3-dihydro-4′H-spiro[indene-2,5′-[1,3]oxazol]-4′-one] | 8.5 |
